Test results reported in patent publication US20060008512A1, “Composition and methods for improved animal performance” (priority 2004, published 2006).
Where two headings read alike, the source gives them in different places.

Experiments:
[1] = daily injections of 150 mcg/kg body weight; cited from earlier work
[2] = test system: Hy-Line W-36 White Leghorn hens; details: for Egg Shell, % (washed, dried): 6 & 10 d rooms combined; for Whole egg weight (mean±SEM): 4 day period after start of test diets
Description: Experiment 2. […] The photoperiod was 17 hours of light per day (0330 hours to 2030 hours).
The objective was to use T4 to humanely induce molting in hens that are continuously provided with ad libitum access to palatable feed meeting or exceeding all National Research Council (1994) standards. Developing a fully efficacious yet affordable molting protocol was predicated on determining the minimum effective level for T4 supplementation. Factors that potentially may affect the required level of T4 supplementation include: (1) uncertainty regarding the efficiency of T4 absorption by the gastrointestinal tract, (2) the possibility that continuous dietary ingestion of T4 could trigger substantially different biological responses when compared single daily injections, and (3) the likelihood that daily T4 intake would diminish in parallel with molt-related reductions in feed intake associated with cessation in egg production. A spontaneous and voluntary loss of appetite (anorexia) commonly accompanies seasonal molting and broodiness in a variety of avian species (Berry, 2003; Webster, 2003). Accordingly, the responses of hens to diets containing 10, 20, and 40 mg T4/kg, to bracket the anticipated range of T4 needed to cause an effective molt, were determined.

[3] = test system: 96-week old broiler breeder cockerels; details: 2 or 5 ppm T4 in diet for 4 weeks; cited from earlier work
[4] = test system: Cobb broiler breeder hens and roosters
Description: Molting Cobb Broiler Breeder Hens and Roosters with Dietary Thyroxine.

White Leghorn hens = details: excessive injected levels, e.g. 243 micrograms/100 g body weight; cited from earlier work
[5] = 10 mg/kg of feed 6 d from day 5, Day 7
[6] = 10 mg/kg of feed 6 d from day 5, Day 10
[7] = 10 mg/kg of feed 6 d from day 5, Day 14
[8] = 10 mg/kg of feed 6 d from day 5, Day 30
[9] = 10 mg/kg of feed 10 d from day 5, Day 7
[10] = 10 mg/kg of feed 10 d from day 5, Day 10
[11] = 10 mg/kg of feed 10 d from day 5, Day 14
[12] = 10 mg/kg of feed 10 d from day 5, Day 30
[13] = 20 mg/kg of feed 6 d from day 5, Day 7
[14] = 20 mg/kg of feed 6 d from day 5, Day 10
[15] = 20 mg/kg of feed 6 d from day 5, Day 14
[16] = 20 mg/kg of feed 6 d from day 5, Day 30
[17] = 20 mg/kg of feed 10 d from day 5, Day 7
[18] = 20 mg/kg of feed 10 d from day 5, Day 10
[19] = 20 mg/kg of feed 10 d from day 5, Day 14
[20] = 20 mg/kg of feed 10 d from day 5, Day 30
[21] = 40 mg/kg of feed 6 d from day 5, Day 7
[22] = 40 mg/kg of feed 6 d from day 5, Day 10
[23] = 40 mg/kg of feed 6 d from day 5, Day 14
[24] = 40 mg/kg of feed 6 d from day 5, Day 30
[25] = 40 mg/kg of feed 10 d from day 5, Day 7
[26] = 40 mg/kg of feed 10 d from day 5, Day 10
[27] = 40 mg/kg of feed 10 d from day 5, Day 14
[28] = 40 mg/kg of feed 10 d from day 5, Day 30

N[C@@H](Cc1cc(I)c(Oc2cc(I)c(O)c(I)c2)c(I)c1)C(=O)O [L-thyroxine, 3,5,3′,5′-tetraiodo-L-thyronine]
Decrease in fiber diameter [1]: 7.8%
Increase in mohair length growth rate [1]: 15%
Onset of molt after T4 feeding was initiated ([2]; 10 mg T4/kg, 10 days on test diets, half of the hens): 11 days
Body weight (BW) ([2]; 10 mg/kg of feed 6 d from day 5, Day 1): 1501 g
Body weight (BW) [2, 5]: 1377 g
Body weight change from day 1 (% BWC) [2, 5]: −8.3%
Body weight (BW) [2, 6]: 1293 g
Body weight change from day 1 (% BWC) [2, 6]: −13.9%
Body weight (BW) [2, 7]: 1424 g
Body weight change from day 1 (% BWC) [2, 7]: −5.1%
Body weight (BW) [2, 8]: 1483 g
Body weight change from day 1 (% BWC) [2, 8]: −1.2%
Hen-day egg production ([2]; 10 mg/kg of feed 6 d from day 5, day 4): 75%
Hen-day egg production ([2]; 10 mg/kg of feed 6 d from day 5, day 6): 58%
Hen-day egg production ([2]; 10 mg/kg of feed 6 d from day 5, day 8): 25%
Hen-day egg production ([2]; 10 mg/kg of feed 6 d from day 5, day 10): 8%
Hen-day egg production ([2]; 10 mg/kg of feed 6 d from day 5, day 12): 17%
Hen-day egg production ([2]; 10 mg/kg of feed 6 d from day 5, day 14): 0%
Hen-day egg production ([2]; 10 mg/kg of feed 6 d from day 5, day 16): 33%
Hen-day egg production ([2]; 10 mg/kg of feed 6 d from day 5, day 18): 25%
Hen-day egg production ([2]; 10 mg/kg of feed 6 d from day 5, day 20): 58%
Hen-day egg production ([2]; 10 mg/kg of feed 6 d from day 5, day 22): 75%
Hen-day egg production ([2]; 10 mg/kg of feed 6 d from day 5, day 24): 83%
Hen-day egg production ([2]; 10 mg/kg of feed 6 d from day 5, day 26): 42%
Hen-day egg production ([2]; 10 mg/kg of feed 6 d from day 5, day 28): 83%
Hen-day egg production ([2]; 10 mg/kg of feed 6 d from day 5, day 30): 75%
Body weight (BW) ([2]; 10 mg/kg of feed 10 d from day 5, Day 1): 1477 g
Body weight (BW) [2, 9]: 1372 g
Body weight change from day 1 (% BWC) [2, 9]: −7.1%
Body weight (BW) [2, 10]: 1335 g
Body weight change from day 1 (% BWC) [2, 10]: −9.6%
Body weight (BW) [2, 11]: 1314 g
Body weight change from day 1 (% BWC) [2, 11]: −11.0%
Body weight (BW) [2, 12]: 1400 g
Body weight change from day 1 (% BWC) [2, 12]: −5.2%
Hen-day egg production ([2]; 10 mg/kg of feed 10 d from day 5, day 4): 58%
Hen-day egg production ([2]; 10 mg/kg of feed 10 d from day 5, day 6): 50%
Hen-day egg production ([2]; 10 mg/kg of feed 10 d from day 5, day 8): 42%
Hen-day egg production ([2]; 10 mg/kg of feed 10 d from day 5, day 10): 17%
Hen-day egg production ([2]; 10 mg/kg of feed 10 d from day 5, day 12): 17%
Hen-day egg production ([2]; 10 mg/kg of feed 10 d from day 5, day 14): 17%
Hen-day egg production ([2]; 10 mg/kg of feed 10 d from day 5, day 16): 17%
Hen-day egg production ([2]; 10 mg/kg of feed 10 d from day 5, day 18): 25%
Hen-day egg production ([2]; 10 mg/kg of feed 10 d from day 5, day 22): 33%
Hen-day egg production ([2]; 10 mg/kg of feed 10 d from day 5, day 24): 50%
Hen-day egg production ([2]; 10 mg/kg of feed 10 d from day 5, day 26): 25%
Hen-day egg production ([2]; 10 mg/kg of feed 10 d from day 5, day 28): 25%
Hen-day egg production ([2]; 10 mg/kg of feed 10 d from day 5, day 30): 33%
Egg Shell, % (washed, dried) ([2]; 10 mg/kg of feed, Days 2 to 4): 7.93 (n = 6) %
Egg Shell, % (washed, dried) ([2]; 10 mg/kg of feed, Days 5 to 6): 7.39 (n = 9) %
Egg Shell, % (washed, dried) ([2]; 10 mg/kg of feed, Days 7 to 8): 6.63 (n = 8) %
Body weight (BW) ([2]; 20 mg/kg of feed 6 d from day 5, Day 1): 1582 g
Body weight (BW) [2, 13]: 1434 g
Body weight change from day 1 (% BWC) [2, 13]: −9.4%
Body weight (BW) [2, 14]: 1373 g
Body weight change from day 1 (% BWC) [2, 14]: −13.2%
Body weight (BW) [2, 15]: 1491 g
Body weight change from day 1 (% BWC) [2, 15]: −3.9%
Body weight (BW) [2, 16]: 1521 g
Body weight change from day 1 (% BWC) [2, 16]: −3.9%
Hen-day egg production ([2]; 20 mg/kg of feed 6 d from day 5, day 4): 94%
Hen-day egg production ([2]; 20 mg/kg of feed 6 d from day 5, day 6): 69%
Hen-day egg production ([2]; 20 mg/kg of feed 6 d from day 5, day 8): 17%
Hen-day egg production ([2]; 20 mg/kg of feed 6 d from day 5, day 10): 0%
Hen-day egg production ([2]; 20 mg/kg of feed 6 d from day 5, day 12): 17%
Hen-day egg production ([2]; 20 mg/kg of feed 6 d from day 5, day 14): 14%
Hen-day egg production ([2]; 20 mg/kg of feed 6 d from day 5, day 16): 33%
Hen-day egg production ([2]; 20 mg/kg of feed 6 d from day 5, day 18): 39%
Hen-day egg production ([2]; 20 mg/kg of feed 6 d from day 5, day 20): 47%
Hen-day egg production ([2]; 20 mg/kg of feed 6 d from day 5, day 22): 64%
Hen-day egg production ([2]; 20 mg/kg of feed 6 d from day 5, day 24): 64%
Hen-day egg production ([2]; 20 mg/kg of feed 6 d from day 5, day 26): 78%
Hen-day egg production ([2]; 20 mg/kg of feed 6 d from day 5, day 28): 89%
Hen-day egg production ([2]; 20 mg/kg of feed 6 d from day 5, day 30): 61%
Body weight (BW) ([2]; 20 mg/kg of feed 10 d from day 5, Day 1): 1680 g
Body weight (BW) [2, 17]: 1533 g
Body weight change from day 1 (% BWC) [2, 17]: −8.8%
Body weight (BW) [2, 18]: 1431 g
Body weight change from day 1 (% BWC) [2, 18]: −14.8%
Body weight (BW) [2, 19]: 1373 g
Body weight change from day 1 (% BWC) [2, 19]: −18.3%
Body weight (BW) [2, 20]: 1448 g
Body weight change from day 1 (% BWC) [2, 20]: −13.8%
Egg Shell, % (washed, dried) ([2]; 20 mg/kg of feed, Days 2 to 4): 8.38 (n = 10) %
Egg Shell, % (washed, dried) ([2]; 20 mg/kg of feed, Days 5 to 6): 8.08 (n = 13) %
Egg Shell, % (washed, dried) ([2]; 20 mg/kg of feed, Days 7 to 8): 5.56 (n = 2) %
Egg production ([2]; 40 mg T4/kg diet for 10 days): cease completely
Body weight (BW) ([2]; 40 mg/kg of feed 6 d from day 5, Day 1): 1629 g
Body weight (BW) [2, 21]: 1443 g
Body weight change from day 1 (% BWC) [2, 21]: −11.4%
Body weight (BW) [2, 22]: 1350 g
Body weight change from day 1 (% BWC) [2, 22]: −17.1%
Body weight (BW) [2, 23]: 1396 g
Body weight change from day 1 (% BWC) [2, 23]: −14.3%
Body weight (BW) [2, 24]: 1481 g
Body weight change from day 1 (% BWC) [2, 24]: −9.1%
Hen-day egg production ([2]; 40 mg/kg of feed 6 d from day 5, day 4): 67%
Hen-day egg production ([2]; 40 mg/kg of feed 6 d from day 5, day 6): 42%
Hen-day egg production ([2]; 40 mg/kg of feed 6 d from day 5, day 8): 8%
Hen-day egg production ([2]; 40 mg/kg of feed 6 d from day 5, day 10): 0%
Hen-day egg production ([2]; 40 mg/kg of feed 6 d from day 5, day 12): 0%
Hen-day egg production ([2]; 40 mg/kg of feed 6 d from day 5, day 14): 0%
Hen-day egg production ([2]; 40 mg/kg of feed 6 d from day 5, day 16): 0%
Hen-day egg production ([2]; 40 mg/kg of feed 6 d from day 5, day 18): 8%
Hen-day egg production ([2]; 40 mg/kg of feed 6 d from day 5, day 20): 25%
Hen-day egg production ([2]; 40 mg/kg of feed 6 d from day 5, day 22): 25%
Hen-day egg production ([2]; 40 mg/kg of feed 6 d from day 5, day 24): 50%
Hen-day egg production ([2]; 40 mg/kg of feed 6 d from day 5, day 26): 17%
Hen-day egg production ([2]; 40 mg/kg of feed 6 d from day 5, day 28): 33%
Hen-day egg production ([2]; 40 mg/kg of feed 6 d from day 5, day 30): 33%
Body weight (BW) ([2]; 40 mg/kg of feed 10 d from day 5, Day 1): 1572 g
Body weight (BW) [2, 25]: 1392 g
Body weight change from day 1 (% BWC) [2, 25]: −11.5%
Body weight (BW) [2, 26]: 1309 g
Body weight change from day 1 (% BWC) [2, 26]: −16.7%
Body weight (BW) [2, 27]: 1245 g
Body weight change from day 1 (% BWC) [2, 27]: −20.8%
Body weight (BW) [2, 28]: 1322 g
Body weight change from day 1 (% BWC) [2, 28]: −15.9%
Egg Shell, % (washed, dried) ([2]; 40 mg/kg of feed, Days 2 to 4): 8.34 (n = 6) %
Egg Shell, % (washed, dried) ([2]; 40 mg/kg of feed, Days 5 to 6): 7.82 (n = 6) %
Egg Shell, % (washed, dried) ([2]; 40 mg/kg of feed, Days 7 to 8): 6.63 (n = 3) %
Mortality ([2]; 10, 20, 40 mg T4/kg diets, 6 or 10 days): No mortal-ity occurred
Whole egg weight (mean±SEM) ([2]; 10 ppm T4): 62 ± 2 g
Time to reduced egg production ([2]; 20 and 40 mg T4/kg feed): ≤ 4 days
Whole egg weight (mean±SEM) ([2]; 20 ppm T4): 65 ± 2 g
Whole egg weight (mean±SEM) ([2]; 40 ppm T4): 65 ± 3 g
Size of regressed reproductive tracts at necropsy ([2]; hens that had entirely ceased egg production after the test diets): ≤ 50 % normal size
Week at which daily sperm output returned to control values [3]: 11 week
Week at which plasma testosterone levels returned to control values [3]: 5 week
Toxicity to broiler breeder males ([4]; 25 mg/kg diet or more): toxic to broiler breeder males (death)
Testes of broiler breeder males ([4]; 25 or 40 mg T4/kg diet): testes shown to enlarge
Adverse sign in roosters ([4]; 25 or 40 mg/kg diet): “stroke blood” from the nostrils
Time on treated feed until hens reduced feed intake, ceased egg production and began to molt feathers ([4]; Cobb broiler breeder hens, 25 or 40 ppm): 15 to 17 days
Tolerance of males for thyroxine (T4) alone ([4]; excess causes mortality): < 25 mg/kg diet
Mortality (White Leghorn hens): 47%
